Assay results: patent publication US9957273B2, “5-substituted 7- [4-(2-pyridyl)phenylmethylamino] -3-isopropylpyrazolo4,3-D]pyrimidine derivatives, use thereof as medicaments, and pharmaceutical compositions” (USTAV EXPERIMENTALNI BOTANIKY AV CR, V.V.I., priority 2015, dated 2018)
Read-outs that look alike come from different tables or passages of the source.

Experiments:
[1] = tested on: HUVECs (human umbilical vein endothelial cells); assay: HUVEC proliferation assay (crystal violet); type: cell-based; conditions: 72 h, read-out: Inhibition of proliferation (EC50)
Method: To verify that novel compounds have anti-vascularisation properties, we analyzed their influence on the proliferation and migration of HUVECs. HUVECs (human umbilical vein endothelial cells) were purchased from Promocell (Heidelberg, Germany) and cultured in endothelial cell growth medium (ECGM, Promocell, Heidelberg, Germany) containing 10% FCS (Biochrom, Berlin, Germany). Experiments were performed using cells at passage 3.
For proliferation assay, 1.5×10^3 HUVECs were cultured for 24 h. Afterwards, cells were either left untreated or treated with novel compounds for 72 h. Proliferation assay was performed using crystal violet as described previously (Koltermann et al. 2007, Cell Mol. Life Sci. 64:1715-1722).

[2] = tested on: CEM (human lymphoblastoid leukaemia); assay: MTT cytotoxicity assay, leukemic cell line CEM; type: cell-based; conditions: three days
Description: (§1) Cytotoxicity of the compounds is the major property determining their antileukemic efficacy in vivo. One of the parameters used, as the basis for cytotoxicity assays, is the metabolic activity of viable cells. For example, a microtiter assay, which uses (3-(4,5-dimethylthiazol-2-yl)-2,5-diphenyltetrazolium bromide (MTT), is widely used to quantitate cell proliferation and cytotoxicity. This assay is widely used in drug screening programs and in chemosensitivity testing. Because only metabolically active living cells reduce MTT to correspond purple formazan dye, these assays detect viable cells exclusively. The quantity of reduced MTT corresponds to the number of vital cells in the culture.
(§2) The compounds were assayed using the following leukemic cell lines: K562 (human chronic myelogenous leukaemia), HL60 (human promyelocytic leukaemia), CEM (human lymphoblastoid leukaemia), THP1 (human monocytic cell line), MV4; 11 (acute myelocytic leukemia). All cell lines were grown in RPMI medium supplemented with fetal bovine serum and L-glutamine and maintained at 37° C. in a humidified atmosphere with 5% CO2. For cytotoxicity assays, 2000-5000 cells were seeded into each well of 96 well plate, allowed to stabilize for at least 8 h and then tested compounds were added at various concentrations ranging from 100 to 0.01 μM in triplicates. After three days, MTT solution (5 mg/ml; Sigma, St. Louis, USA) was added to cells and medium was replaced with DMSO after five hours. The absorbance was measured at 620 nm by employing a microplate reader. MTT assays were repeated 3 times for each drug application and untreated cells were used as reference.

[3] = tested on: HCT116 (colon carcinoma); assay: MTT cytotoxicity assay, solid cancer cell line HCT116; type: cell-based; conditions: Homo sapiens, HCT-116, 72 h, three days
Method: as §2, with “following” for “following leukemic”, “G361 (malignant melanoma), MCF7 (breast adenocarcinoma), PLC/PRF/5 (liver hepatoma), PANC-1 (pancreatic carcinoma) and HCT116 (colon carcinoma).” for “K562 (human chronic myelogenous leukaemia), HL60 (human promyelocytic leukaemia), CEM (human lymphoblastoid leukaemia), THP1 (human monocytic cell line), MV4; 11 (acute myelocytic leukemia).”, “DMEM” for “RPMI”, “4000-10000” for “2000-5000”, “of a” for “of”, “16” for “8”

[4] = tested on: PLC/PRF/5 (liver hepatoma); assay: MTT cytotoxicity assay, solid cancer cell line PLC/PRF/5; type: cell-based; conditions: Homo sapiens, PLC-PRF-5, 72 h, three days
Method: as §2, with “following” for “following leukemic”, “G361 (malignant melanoma), MCF7 (breast adenocarcinoma), PLC/PRF/5 (liver hepatoma), PANC-1 (pancreatic carcinoma) and HCT116 (colon carcinoma).” for “K562 (human chronic myelogenous leukaemia), HL60 (human promyelocytic leukaemia), CEM (human lymphoblastoid leukaemia), THP1 (human monocytic cell line), MV4; 11 (acute myelocytic leukemia).”, “DMEM” for “RPMI”, “4000-10000” for “2000-5000”, “of a” for “of”, “16” for “8”

[5] = tested on: MV4;11 (acute myelocytic leukemia); assay: MTT cytotoxicity assay, leukemic cell line MV4;11; type: cell-based; conditions: three days
Description: as §1, §2

[6] = tested on: HL60 (human promyelocytic leukaemia); assay: MTT cytotoxicity assay, leukemic cell line HL60; type: cell-based; conditions: three days
Description: as §1, §2

[7] = target: T1, CDK5/p35 (Homo sapiens, UniProt Q00535); assay: CDK5/p35 kinase inhibition (33P-ATP, histone H1); type: biochemical; conditions: 0.15 μM ATP
T1 construct: purchased ProQinase GmbH
T1 sequence (Q00535 whole entry): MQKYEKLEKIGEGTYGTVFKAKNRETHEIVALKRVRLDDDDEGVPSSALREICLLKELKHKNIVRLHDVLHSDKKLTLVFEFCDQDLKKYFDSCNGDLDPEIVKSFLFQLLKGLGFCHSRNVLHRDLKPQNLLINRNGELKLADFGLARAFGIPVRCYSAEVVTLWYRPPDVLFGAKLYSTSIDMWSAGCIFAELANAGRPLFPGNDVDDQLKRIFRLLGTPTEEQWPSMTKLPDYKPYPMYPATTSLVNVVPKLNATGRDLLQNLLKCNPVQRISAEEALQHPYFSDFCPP
T1 sequence (Q15078 whole entry partner): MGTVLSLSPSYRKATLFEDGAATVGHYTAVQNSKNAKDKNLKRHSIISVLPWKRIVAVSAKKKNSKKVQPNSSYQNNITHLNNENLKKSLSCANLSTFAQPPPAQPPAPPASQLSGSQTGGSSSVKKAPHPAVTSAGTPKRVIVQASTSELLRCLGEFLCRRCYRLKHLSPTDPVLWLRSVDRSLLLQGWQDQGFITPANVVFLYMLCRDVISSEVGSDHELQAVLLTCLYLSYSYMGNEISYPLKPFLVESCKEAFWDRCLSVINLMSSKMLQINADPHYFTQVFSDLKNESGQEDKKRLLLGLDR
Method: CDK2/Cyclin E kinase was produced in Sf9 insect cells via baculoviral infection and purified on a NiNTA column (Qiagen). […] CDK5/p35 was purchased from ProQinase GmbH.
The reactions were stopped by adding 5 μL of 3% aq H3PO4. Aliquots were spotted onto P-81 phosphocellulose (Whatman), washed 3× with 0.5% aq H3PO4 and finally air-dried.

[8] = tested on: THP1 (human monocytic cell line); assay: MTT cytotoxicity assay, leukemic cell line THP1; type: cell-based; conditions: three days
Description: as §1, §2

[9] = tested on: PANC-1 (pancreatic carcinoma); assay: MTT cytotoxicity assay, solid cancer cell line PANC-1; type: cell-based; conditions: Homo sapiens, PANC-1, 72 h, three days
Method: as §2, with “following” for “following leukemic”, “G361 (malignant melanoma), MCF7 (breast adenocarcinoma), PLC/PRF/5 (liver hepatoma), PANC-1 (pancreatic carcinoma) and HCT116 (colon carcinoma).” for “K562 (human chronic myelogenous leukaemia), HL60 (human promyelocytic leukaemia), CEM (human lymphoblastoid leukaemia), THP1 (human monocytic cell line), MV4; 11 (acute myelocytic leukemia).”, “DMEM” for “RPMI”, “4000-10000” for “2000-5000”, “of a” for “of”, “16” for “8”

[10] = tested on: G361 (malignant melanoma); assay: MTT cytotoxicity assay, solid cancer cell line G361; type: cell-based; conditions: Homo sapiens, G-361, 72 h, three days
Method: as §2, with “following” for “following leukemic”, “G361 (malignant melanoma), MCF7 (breast adenocarcinoma), PLC/PRF/5 (liver hepatoma), PANC-1 (pancreatic carcinoma) and HCT116 (colon carcinoma).” for “K562 (human chronic myelogenous leukaemia), HL60 (human promyelocytic leukaemia), CEM (human lymphoblastoid leukaemia), THP1 (human monocytic cell line), MV4; 11 (acute myelocytic leukemia).”, “DMEM” for “RPMI”, “4000-10000” for “2000-5000”, “of a” for “of”, “16” for “8”

[11] = tested on: K562 (human chronic myelogenous leukaemia); assay: MTT cytotoxicity assay, leukemic cell line K562; type: cell-based; conditions: three days
Description: as §1, §2

[12] = tested on: MCF7 (breast adenocarcinoma); assay: MTT cytotoxicity assay, solid cancer cell line MCF7; type: cell-based; conditions: Homo sapiens, MCF7, 72 h, three days
Method: as §2, with “following” for “following leukemic”, “G361 (malignant melanoma), MCF7 (breast adenocarcinoma), PLC/PRF/5 (liver hepatoma), PANC-1 (pancreatic carcinoma) and HCT116 (colon carcinoma).” for “K562 (human chronic myelogenous leukaemia), HL60 (human promyelocytic leukaemia), CEM (human lymphoblastoid leukaemia), THP1 (human monocytic cell line), MV4; 11 (acute myelocytic leukemia).”, “DMEM” for “RPMI”, “4000-10000” for “2000-5000”, “of a” for “of”, “16” for “8”

IC50 [7] [µM] | SMILES | EC50 [1] [nM] | IC50 ([2]; Homo sapiens, 72 h) [µM] | IC50 [3] [µM] | IC50 [4] [µM] | IC50 ([5]; Homo sapiens, MV4-11, 72 h) [µM] | IC50 ([6]; Homo sapiens, HL-60, 72 h) [µM] | IC50 ([8]; Homo sapiens, THP-1, 72 h) [µM] | IC50 [9] [µM] | IC50 [10] [µM] | IC50 ([11]; Homo sapiens, K562, 72 h) [µM] | EC50 ([1]; Homo sapiens, HUVEC) [nM] | IC50 [12] [µM] | IC50 [11] [µM] | IC50 [2] [µM] | IC50 [5] [µM] | IC50 [6] [µM] | IC50 [8] [µM]
– | CC(C)c1n[nH]c2c(NCc3ccc(-c4ccccn4)cc3)nc(NCc3ccccc3Cl)nc12 [Compound 81] | 1330 | – | – | – | – | – | – | – | – | – | – | – | – | – | – | – | –
0.183 | CC(C)c1n[nH]c2c(NCc3ccc(-c4ccccn4)cc3)ncnc12 [Compound 2] | – | 0.8 | 1.2 | 0.97 | 0.47 | 0.92 | 0.56 | 0.46 | 0.78 | – | – | – | – | – | – | – | –
0.422 | CC(C)c1[nH]nc2c(NCc3ccc(-c4ccccn4)cc3)nc(N3CCN(CCO)CC3)nc12 [Compound 17] | – | 0.11 | 0.4 | 0.73 | 0.37 | 0.26 | 0.3 | 0.34 | 0.24 | 0.15 | 95 | 0.19 | – | – | – | – | –
0.005 | CC(C)c1[nH]nc2c(NCc3ccc(-c4ccccn4)cc3)nc(N3CCOCC3)nc12 [Compound 9] | – | 0.07 | 0.42 | 0.21 | 0.36 | 0.1 | 0.18 | 0.3 | 0.25 | 0.11 | 136 | 0.16 | – | – | – | – | –
– | CCN(CC)CCNc1nc(NCc2ccc(-c3ccccn3)cc2)c2[nH]nc(C(C)C)c2n1 [Compound 50] | – | – | – | – | – | – | – | – | – | – | – | – | 0.18 | 0.11 | 0.17 | 0.14 | 0.08
– | CC(C)c1n[nH]c2c(NCc3ccc(-c4ccccn4)cc3)nc(N[C@H](C)CCO)nc12 [Compound 31] | – | – | – | – | – | – | – | – | – | – | – | – | 0.39 | 0.21 | 0.31 | 0.24 | 0.26
0.179 | CC(C)c1[nH]nc2c(NCc3ccc(-c4ccccn4)cc3)nc(N[C@H]3CC[C@H](N)CC3)nc12 [Compound 67] | – | 0.23 | 0.37 | 0.29 | 0.19 | 0.24 | 0.3 | 0.5 | 0.36 | 0.59 | 69 | 0.47 | – | – | – | – | –
0.017 | CC(C)c1n[nH]c2c(NCc3ccc(-c4ccccn4)cc3)nc(NCC(O)CO)nc12 (stereo not shown) [Compound 35] | – | 0.18 | – | – | 0.2 | 0.17 | 0.26 | – | – | 0.24 | – | – | – | – | – | – | –
– | CC(C)c1n[nH]c2c(NCc3ccc(-c4ccccn4)cc3)nc(NCCCN)nc12 [Compound 41] | – | – | – | – | – | – | – | – | – | – | – | – | 0.47 | 0.43 | 0.35 | 0.56 | 0.27
4.42 | COc1ccc(CNc2nc(NCc3ccc(-c4ccccn4)cc3)c3n[nH]c(C(C)C)c3n2)cc1 [Compound 73] | – | 0.89 | 0.99 | 3.94 | 0.97 | 0.78 | 0.67 | 0.44 | 2.62 | 3.95 | 2280 | 5.3 | – | – | – | – | –
– | CC(C)c1n[nH]c2c(NCc3ccc(-c4ccccn4)cc3)nc(NCC(C)N3CC3)nc12 (stereo not shown) [Compound 57] | – | – | – | – | – | – | – | – | – | – | – | – | 0.44 | 0.27 | 0.53 | 0.32 | 0.29
0.229 | CSc1nc(NCc2ccc(-c3ccccn3)cc2)c2[nH]nc(C(C)C)c2n1 [Compound 5] | – | 0.94 | 1.3 | 0.7 | 0.6 | 0.86 | 0.32 | 0.65 | 0.24 | 0.78 | 234 | 0.81 | – | – | – | – | –
– | CC(C)c1n[nH]c2c(NCc3ccc(-c4ccccn4)cc3)nc(S(C)(=O)=O)nc12 [Compound 8, 3-Isopropyl-5-methylsulfonyl-7-[4-(2-pyridyl)benzyl]amino-1(2)H-pyrazolo[4,3-d]pyridine] | 569 | – | – | – | – | – | – | – | – | – | – | – | – | – | – | – | –
